The values below come from patent US8202834B2, “Fat regulation” (FibroGen, Inc., priority 2002, dated 2012).

For experiment [1], the system named is HIF-1α. As to the kind of experiment: HIF-1α in nuclear fractions, TRANSAM HIF-1 ELISA. Type of experiment: cell-based, human. The conditions noted are these: 293A and Hep3B cells, vs vehicle; FIG. 8B. From the text: (§1) Compounds of the present invention for use in the present methods stabilize HIFα, inhibit HIF hydroxylase activity and/or HIFα hydroxylation, etc. Thus, compounds can be identified, e.g., by their ability to stabilize HIFα. Stabilization of HIFα using compounds and methods of the present invention was examined as follows. Human cells derived from adenovirus-transformed fetal kidney epithelium (293A), cervical epithelial adenocarcinoma (HeLa), hepatocellular carcinoma (Hep3B), squamous carcinoma (SSC-25), and lung fibroblast (HLF) tissues (see, e.g., American Type Culture Collection, Manassas Va.; and Qbiogene, Carlsbad Calif.) were separately seeded into 100 mm culture dishes and grown at 37° C., 20% O2, 5% CO2 in media as follows: HeLa cells in Dulbecco's Modification of Eagle's Medium (DMEM), 2% fetal bovine serum (FBS); HLF cells in DMEM, 10% FBS; 293A cells in DMEM, 5% FBS; and Hep3B cells in Minimal Essential Medium (MEM), Earle's BSS (Mediatech Inc., Herndon Va.), 2 mM L-glutamine, 0.1 mM non-essential amino acids, 1 mM sodium pyruvate, 10% FBS. When cell layers reached confluence, the media was replaced with OPTI-MEM media (Invitrogen Life Technologies, Carlsbad Calif.) and cell layers were incubated for approximately 24 hours in 20% O2, 5% CO2 at 37° C. A compound of the invention (compound B, D, F, G, or H) or vehicle control (0.5 to 1% DMSO) was then added to existing medium, and incubation was continued overnight.
Alternatively, nuclear fractions were prepared using a nuclear extract kit (Active Motif, Carlsbad Calif.) and were analyzed for HIF-1α using a TRANSAM HIF-1 ELISA kit (Active Motif) according to the manufacturer's instructions.

The test system of the next experiment is DEC1/Stra13. As to the kind of experiment: DEC1/Stra13 expression in tissues after 4 days of oral dosing. In kind it is in vivo, mouse. The following applies: adipose, kidney, liver and muscle; oral gavage once per day for 4 days, 4 h after final dose; FIG. 3B. On the procedure:
(§2) To further investigate the effect of the methods and compounds of the present invention on expression of adipogenic factors, twelve Swiss Webster male mice (30-32 g) obtained from Simonsen, Inc. were treated by oral gavage once per day for 4 days with 4 ml/kg volume of either 0.5% CMC (0 mg/kg/day), 25 mg/ml compound D in 0.5% CMC (100 mg/kg/day), or 7.5 mg/ml and 25 mg/ml of compound B in 0.5% CMC (30 and 100 mg/kg/day, respectively). Four hours after the final dose, animals were anesthetized, sacrificed, and approximately 150 mg of adipose, heart, kidney, liver, lung, and muscle were isolated and stored in RNALATER solution (Ambion) at −20° C. RNA isolation and gene expression analysis was performed as described in Example 3 above.

The test system of another experiment is PPAR-γ. As to the kind of experiment: PPAR-γ expression in tissue after 4 days of oral dosing. Type of experiment: in vivo, mouse. The conditions noted are these: cardiac tissue; oral gavage once per day for 4 days; FIG. 3C. The protocol:
as §2

Experiment [2] concerns HIF-1α. As to the kind of experiment: HIFα stabilization in cells, nuclear fraction Western blot. Type of experiment: cell-based, human. The conditions noted are these: various cell types, overnight incubation; FIG. 8A.
From the text: as §1, with “A compound of the invention (compound B, D, F, G, or H) or vehicle control (0.5 to 1% DMSO) was then added to existing medium, and incubation was continued overnight.” left out

Experiment [3] deals with GluT-1. As to the kind of experiment: GluT-1 protein levels in SCC-25 cells, Western blot. Type of experiment: cell-based, human. The conditions noted are these: 10 and 25 μM, 16 hours, FIG. 9A. On the procedure: (§3) As the compounds and methods of the invention regulate fat metabolism, which is tightly coordinated with glucose regulation, the effect of compounds and methods on glucose uptake and metabolism was analyzed. Human SSC-25 (squamous cell carcinoma) or rat H9c2 (ventricular cardiomyocyte) cells were grown to confluence in 100 mm culture dishes at 37° C., 10% CO2 in DMEM with 10% fetal calf serum. Cells were then washed twice with PBS and incubated with vehicle control, compound D (10 and 25 μM), or compound C (5, 10, and 20 μM) for 16 hours. Plates were placed on ice, culture supernatant was removed, and lysis buffer-1 (LB-1: 10 mM Tris pH 7.4, 1 mM EDTA, 150 mM sodium chloride, 0.5% IGEPAL) was added. Cells were harvested by scraping, incubated for 15 minutes on ice, and then centrifuged at 3,000×g for 5 minutes at 4° C. The supernatant, which represents the cytosolic fraction, was collected and cytosolic proteins were separated under reducing conditions using SDS-polyacrylamide gel electrophoresis (SDS-PAGE) with equal amounts of protein loaded per lane.
(§4) SDS-PAGE was conducted at 150 V for 2 hours, after which the proteins were transferred to a PVDF membrane at 400 mA for 1.5 hours at 4° C. […]
(In general: In western blotting, separated proteins are transferred to a membrane and probed.)

Experiment [4] deals with GluT-1. In words: GluT-1 protein levels in H9c2 cells, Western blot. Type of experiment: cell-based, rat. The following applies: H9c2 cells, 5, 10 and 20 μM, 16 hours; FIG. 9A. On the procedure:
as §3, §4

The nature of experiment [5]: Diet-induced obesity model, high-fat diet, 28 days. Type of experiment: in vivo, C57BL/6J mice. The following applies: 75 mg/kg/day oral gavage, vs high-fat vehicle, p<0.05, FIG. 6A. On the procedure: The effect of the present compounds and methods on fat regulation, e.g., fat uptake and storage, etc., and on regulation of body weight was analyzed as follows. C57Bl/6J mice fed a high-fat diet develop severe obesity, hyperglycemia, and hyperinsulinemia, and are a model of diet-induced obesity, Type 2 diabetes, and impaired glucose tolerance. Forty male C57BL/6J mice obtained from The Jackson Laboratory (Bar Harbor Me.) were divided into the following experimental groups: Group 1: vehicle control animals fed standard mouse chow (n=10); Group 2: vehicle control animals fed high-fat mouse chow (45% fat from Research Diets) (n=10); Group 3: animals fed high-fat mouse chow and administered 75 mg/kg/day compound E by oral gavage (n=10); Group 4: animals fed high-fat mouse chow and administered 75 mg/kg/day compound A by oral gavage (n=10). The feeding regimen was continued for 28 days with weekly measurement of body weight. Animals were then sacrificed and their organs and fat pads were harvested and weighed.

For the molecule `O=C(O)CNC(=O)c1ncccc1O` [compound G, [(3-Hydroxy-pyridine-2-carbonyl)-amino]-acetic acid], the “stabilization and accumulation of HIFα” value in the experiment on HIF-1α [1] was “stabilization and accumulation of HIFα”.

With `O=C(O)c1c[nH]c2c(ccc3cccnc32)c1=O` [compound D, 4-Oxo-1,4-dihydro-[1,10]phenanthroline-3-carboxylic acid], in the experiment with DEC1/Stra13, the DEC1/Stra13 expression result is “increased DEC1/Stra13 expression”. Besides, in the experiment on PPAR-γ, the PPAR-γ expression entry is “decreased PPAR-γ expression”. The HIFα stabilization entry in the experiment on HIF-1α [2] is listed as “stabilized HIFα”. Moreover, in the experiment on GluT-1 [3], the “protein levels of GluT-1” value is “increased protein levels of GluT-1”.

`O=C(O)CNC(=O)c1ncc2cc(Oc3ccccc3)ccc2c1O` [compound C, [(4-Hydroxy-7-phenoxy-isoquinoline-3-carbonyl)-amino]-acetic acid]: in the experiment with GluT-1 [4], the “protein levels of GluT-1” value is recorded as “increased protein levels of GluT-1”.

In the case of `CC(C)Oc1ccc2nc(C(=O)NCC(=O)O)c(O)cc2c1` [compound F, [(3-Hydroxy-6-isopropoxy-quinoline-2-carbonyl)-amino]-acetic acid], the “stabilization and accumulation of HIFα” value in the experiment on HIF-1α [1] was “stabilization and accumulation of HIFα”.

On to `COc1ccc2c(O)c(C(=O)NCC(=O)O)nc(Cl)c2c1` [compound E, [(1-Chloro-4-hydroxy-7-methoxy-isoquinoline-3-carbonyl)-amino]-acetic acid], for which the weight gain entry in experiment [5] is recorded as “significantly less weight gain”.

For `COC(=O)CNC(=O)c1nc(Cl)c2cc(OCc3ccccc3)ccc2c1O` [compound H, [(7-Benzyloxy-1-chloro-4-hydroxy-isoquinoline-3-carbonyl)-amino]-acetic acid methyl ester], in the experiment on HIF-1α [1], the “stabilization and accumulation of HIFα” value is “stabilization and accumulation of HIFα”.

`O=C(O)CNC(=O)c1nc2cc(Cl)ccc2cc1O` [compound A, [(7-Chloro-3-hydroxy-quinoline-2-carbonyl)-amino]-acetic acid]: the weight gain entry in experiment [5] is reported as “significantly less weight gain”.
